Measurements published in the supplement of paper PMC10307832.

Assays:
Test in all cases: relative viability (nuclei count vs DMSO), 5 days (fraction); higher = more cells survive
[1] = compound: N[C@@H]1CCCN(c2c(/C=C3\SC(=O)NC3=O)cccc2-c2ccccc2)C1 [AZD1208] + C[C@]1(O)C[C@@H](c2nc(-c3ccc4ccc(-c5ccccc5)nc4c3)c3c(N)nccn32)C1 [Linsitinib] (partner 1 µM)
Procedure, shortened: (§1)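 One day after seeding in 1536-well plates, lung cancer cell lines were dosed by pin tool. Dosing was either single-drug or a fixed anchor-drug dose plus five library-drug doses (not always all listed) in √10 steps. After 5 days, nuclei were stained in one fix-and-stain step and counted on 4× images, and relative viability is the nuclei count of treated wells over that of vehicle wells, given as the median of duplicate plates.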

[2] = compound: CN1CCN(CC1)C2=CC(=C(C=C2)NC3=NC(=C(S3)C(=O)C4=C(C=CC=C4Cl)Cl)N)OC [XMD14-99] + Cc1cc(Nc2cc(N3CCN(C)CC3)nc(Sc3ccc(NC(=O)C4CC4)cc3)n2)n[nH]1 [Tozasertib] (partner 0.1 µM)
Procedure, shortened: as §1

[3] = compound: N[C@@H]1CCCN(c2c(/C=C3\SC(=O)NC3=O)cccc2-c2ccccc2)C1 [AZD1208] + CC(=O)c1c(C)c2cnc(Nc3ccc(N4CCNCC4)cn3)nc2n(C2CCCC2)c1=O [Palbociclib] (partner 0.5 µM)
Procedure, shortened: as §1

[4] = compound: N[C@@H]1CCCN(c2c(/C=C3\SC(=O)NC3=O)cccc2-c2ccccc2)C1 [AZD1208] + CC1(C)CCC(c2ccc(Cl)cc2)=C(CN2CCN(c3ccc(C(=O)NS(=O)(=O)c4ccc(N[C@H](CCN5CCOCC5)CSc5ccccc5)c(S(=O)(=O)C(F)(F)F)c4)cc3)CC2)C1 [Navitoclax] (partner 0.5 µM)
Procedure, shortened: as §1

| Cell Line | relative viability ([1]; first compound 0.08 µM) | relative viability ([1]; first compound 0.253 µM) | relative viability ([1]; first compound 0.8 µM) | relative viability ([1]; first compound 2.53 µM) | relative viability ([1]; first compound 8 µM) | relative viability ([2]; first compound 0.08 µM) | relative viability ([2]; first compound 0.8 µM) | relative viability ([2]; first compound 2.53 µM) | relative viability ([2]; first compound 8 µM) | relative viability ([3]; first compound 0.08 µM) | relative viability ([3]; first compound 0.253 µM) | relative viability ([3]; first compound 0.8 µM) | relative viability ([3]; first compound 2.53 µM) | relative viability ([3]; first compound 8 µM) | relative viability ([4]; first compound 0.08 µM) | relative viability ([4]; first compound 0.253 µM) | relative viability ([4]; first compound 0.8 µM) | relative viability ([4]; first compound 2.53 µM) | relative viability ([4]; first compound 8 µM) |
| --- | --- | --- | --- | --- | --- | --- | --- | --- | --- | --- | --- | --- | --- | --- | --- | --- | --- | --- | --- |
| NCI-H1755 | 0.993 | 0.995 | 0.913 | 0.998 | 0.95 | 0.519 | 0.531 | 0.478 | 0.512 | 0.439 | 0.459 | 0.437 | 0.458 | 0.385 | 0.991 | 0.989 | 1.02 | 0.952 | 0.786 |
| HCC-78 | 0.513 | 0.495 | 0.45 | 0.439 | 0.415 | 0.407 | 0.335 | 0.398 | 0.347 | 0.464 | 0.427 | 0.466 | 0.446 | 0.452 | 0.951 | 0.752 | 0.672 | 0.685 | 0.709 |
| IA-LM | 0.625 | 0.827 | 0.524 | 0.529 | 0.69 |  |  |  |  |  |  |  |  |  | 0.812 | 0.865 | 0.651 | 0.621 | 0.794 |
| NCI-H441 | 0.477 | 0.593 | 0.381 | 0.497 | 0.457 | 0.693 | 0.599 | 0.554 | 0.354 | 0.192 | 0.196 | 0.204 | 0.178 | 0.23 | 0.936 | 0.698 | 0.65 | 0.289 | 0.393 |
| NCI-H322M | 0.954 | 0.98 | 0.828 | 0.829 | 0.84 | 0.501 | 0.488 | 0.558 | 0.414 | 0.488 | 0.467 |  | 0.5 | 0.502 | 1.1 | 1.27 | 1.2 | 1.13 | 1.2 |
| NCI-H1993 |  | 0.722 | 0.731 | 0.739 | 0.654 | 0.602 | 0.68 | 0.549 | 0.571 | 0.595 | 0.578 | 0.439 | 0.544 | 0.432 |  | 0.824 | 0.606 | 0.812 | 0.691 |
| COR-L23 | 0.84 | 1.09 | 0.824 | 0.825 | 0.771 | 0.18 | 0.211 | 0.182 | 0.151 | 0.288 | 0.312 | 0.256 | 0.295 | 0.244 | 0.948 | 1.07 | 0.931 | 1.05 | 0.816 |
| NCI-H661 | 0.505 | 0.568 | 0.519 | 0.416 | 0.483 | 0.355 | 0.337 | 0.37 | 0.338 | 0.418 | 0.394 | 0.428 | 0.414 | 0.4 |  |  |  |  |  |
| NCI-H596 | 0.97 | 1.02 | 0.975 | 1.01 | 0.714 | 0.881 | 0.839 | 0.892 | 0.803 |  |  |  |  |  | 0.912 | 1.02 | 0.85 | 0.827 | 0.651 |
